Tests used:
[1] = molecular target: T1, Bile acid receptor (Homo sapiens, UniProt Q96RI1); assay: Agonist activity at human FXR expressed in african green monkey CV1 cells co-expressing ECRE with RXR co-factor by luciferase reporter gene assay; format: functional, cell-based, CV-1
T1 sequence (Q96RI1 whole entry): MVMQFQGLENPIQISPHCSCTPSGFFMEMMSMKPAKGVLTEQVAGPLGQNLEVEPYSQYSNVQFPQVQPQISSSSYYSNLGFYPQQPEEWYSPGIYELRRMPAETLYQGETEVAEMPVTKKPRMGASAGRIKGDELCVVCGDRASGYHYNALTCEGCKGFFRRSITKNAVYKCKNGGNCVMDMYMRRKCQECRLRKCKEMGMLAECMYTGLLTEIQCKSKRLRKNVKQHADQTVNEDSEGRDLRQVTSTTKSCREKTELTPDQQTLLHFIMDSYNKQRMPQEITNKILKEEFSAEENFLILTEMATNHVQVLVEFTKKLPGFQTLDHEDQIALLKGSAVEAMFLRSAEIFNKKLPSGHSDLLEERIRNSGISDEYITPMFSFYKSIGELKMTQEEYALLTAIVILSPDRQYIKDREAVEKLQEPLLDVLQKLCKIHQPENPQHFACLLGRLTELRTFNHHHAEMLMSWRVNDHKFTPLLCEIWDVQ

[2] = molecular target: T2, Bile acid receptor (Homo sapiens) (UniProt Q96RI1); assay: Agonist activity at human FXR expressed in african green monkey CV1 cells co-expressing ECRE with RXR co-factor up to 10 uM by luciferase reporter gene assay relative to CDCA; format: functional, cell-based; conditions: CV-1
T2 sequence (whole entry): T1 sequence (Q96RI1 whole entry)

SMILES	EC50 [1]	Efficacy [2]
CCOC(=O)C1=CN(C(=O)c2ccc(Cl)cc2)CC(C)c2c1[nH]c1ccccc21 (stereo not given)	0.073 µM	155%
CC(C)OC(=O)C1=CN(C(=O)c2ccc(F)cc2)CCc2c1[nH]c1ccccc21	0.5 µM	120%
CCCCOC(=O)C1=CN(C(=O)c2ccc(F)cc2)CCc2c1[nH]c1ccccc21	1.1 µM	109%
CCOC(=O)C1=CN(C(=O)c2ccc(F)cc2)CC(C)c2c1[nH]c1ccccc21 (stereo not given)	0.057 µM	160%
CCOC(=O)C1=CN(C(=O)c2ccc(OC)cc2)CC(C)c2c1[nH]c1ccccc21 (stereo not given)	0.06 µM	145%
CCCOC(=O)C1=CN(C(=O)c2ccc(F)cc2)CCc2c1[nH]c1ccccc21	0.5 µM	130%
CCOC(=O)C1=CN(C(=O)c2ccc(F)cc2)CCc2c1[nH]c1ccccc21	0.6 µM	100%
CCOC(=O)C1=CN(C(=O)c2ccc(F)c(F)c2)CC(C)(C)c2c1[nH]c1ccccc21		144%

More lines, now with the values ahead:

EC50 [1]	Efficacy [2]	SMILES
0.032 µM	170%	CCOC(=O)C1=CN(C(=O)c2ccc(F)c(F)c2)CC(C)c2c1[nH]c1ccccc21 (stereo not given)
0.022 µM	148%	CCOC(=O)C1=CN(C(=O)c2ccc(F)cc2)CC(C)(C)c2c1[nH]c1ccccc21
0.025 µM	190%	CCOC(=O)C1=CN(C(=O)c2ccc(Cl)cc2)CC(C)(C)c2c1[nH]c1ccccc21
0.008 µM	146%	CC(C)OC(=O)C1=CN(C(=O)c2ccc(F)cc2)CC(C)(C)c2c1[nH]c1ccccc21
0.029 µM	139%	CCOC(=O)C1=CN(C(=O)c2ccc(OC)cc2)CC(C)(C)c2c1[nH]c1ccccc21
